How the values were obtained:
[1] = target: Transitional endoplasmic reticulum ATPase (Homo sapiens, UniProt P55072); assay: Inhibition of p97 (unknown origin) incubated for 60 mins by ADP-Glo assay
RPMI-8226 = assay: Cytotoxicity against human RPMI-8226 cells assessed as reduction in cell viability incubated for 72 hrs by CCK8 assay; assay type: functional, cell-based
A549 = assay: Cytotoxicity against human A549 cells assessed as reduction in cell viability incubated for 72 hrs by CCK8 assay; assay type: functional, cell-based; conditions: A549, 72 h
[2] = Homo sapiens, RPMI-8226, 72 h, read-out: IC50

Chain of Transitional endoplasmic reticulum ATPase (P55072 whole entry): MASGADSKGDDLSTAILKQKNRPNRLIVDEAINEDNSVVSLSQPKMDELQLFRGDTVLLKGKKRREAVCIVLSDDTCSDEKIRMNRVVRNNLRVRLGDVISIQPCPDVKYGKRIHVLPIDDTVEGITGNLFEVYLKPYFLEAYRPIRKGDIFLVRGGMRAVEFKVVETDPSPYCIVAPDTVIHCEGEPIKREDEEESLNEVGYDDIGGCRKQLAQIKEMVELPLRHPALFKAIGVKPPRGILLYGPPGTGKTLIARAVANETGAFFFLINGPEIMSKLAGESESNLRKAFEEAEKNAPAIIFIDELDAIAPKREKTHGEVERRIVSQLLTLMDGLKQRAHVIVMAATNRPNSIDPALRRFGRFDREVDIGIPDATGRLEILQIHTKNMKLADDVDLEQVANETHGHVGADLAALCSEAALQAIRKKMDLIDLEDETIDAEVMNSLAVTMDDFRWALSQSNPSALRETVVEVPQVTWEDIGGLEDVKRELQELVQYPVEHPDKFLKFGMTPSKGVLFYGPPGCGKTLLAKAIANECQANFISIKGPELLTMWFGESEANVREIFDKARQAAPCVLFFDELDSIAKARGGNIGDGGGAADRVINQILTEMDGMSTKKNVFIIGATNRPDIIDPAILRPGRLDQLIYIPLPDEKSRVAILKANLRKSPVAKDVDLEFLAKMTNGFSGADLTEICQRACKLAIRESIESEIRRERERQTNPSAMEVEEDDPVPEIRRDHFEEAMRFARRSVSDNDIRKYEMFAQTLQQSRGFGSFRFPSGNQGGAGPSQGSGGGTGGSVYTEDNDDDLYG

Row | IC50 [1] | Structure (SMILES) | IC50 (RPMI-8226; [2]) | IC50 (A549) | IC50 (RPMI-8226; rpmi-8226)
1 | 468 nM | Cc1cc2c(NC(=O)c3cscn3)cccc2n1-c1nc2c(c(NCc3cccc(B(O)O)c3)n1)CCC2 |  |  | 
2 | 32 nM | CC#CC(=O)Nc1cccc2c1cc(C)n2-c1ncc(OC)c(NCc2cccc(B(O)O)c2)n1 | 2400 nM | 6100 nM | 
3 | 91 nM | Cc1cc2c(NC(=O)c3ccco3)cccc2n1-c1nc2c(c(NCc3cccc(B(O)O)c3)n1)COCC2 | 2700 nM | 4380 nM | 
4 | 162 nM | Cc1cc2c(NC(=O)c3ccco3)cccc2n1-c1nc(NCc2cccc(B(O)O)c2)c2ccccc2n1 | 3200 nM | 5800 nM | 
5 | 241 nM | Cc1cc2c(NC(=O)c3ccno3)cccc2n1-c1nc2c(c(NCc3cccc(B(O)O)c3)n1)CCC2 |  |  | 
6 | 97.4 nM | COc1cnc(-n2c(C)cc3c(NC(=O)c4ccco4)cccc32)nc1NCc1cccc(B(O)O)c1 | 1900 nM | 3770 nM | 
7 | 258 nM | Cc1cc2c(NC(=O)CCl)cccc2n1-c1nc2c(c(NCc3cccc(B(O)O)c3)n1)CCC2 |  |  | 
8 | 45.6 nM | Cc1cc2c(NS(C)(=O)=O)cccc2n1-c1nc2c(c(NCc3cccc(B(O)O)c3)n1)CCCC2 | 1550 nM | 2420 nM | 
9 | 91.4 nM | C#CC(=O)Nc1cccc2c1cc(C)n2-c1nc2c(c(NCc3cccc(B(O)O)c3)n1)CCC2 | 1270 nM | 2100 nM | 
10 | 114 nM | CC#CC(=O)Nc1cccc2c1cc(C)n2-c1nc(NCc2cccc(B(O)O)c2)c2ccccc2n1 | 2200 nM | 5600 nM | 
11 | 436 nM | Cc1cc2c(NC(=O)CCCl)cccc2n1-c1nc2c(c(NCc3cccc(B(O)O)c3)n1)CCC2 |  |  | 
12 | 58.6 nM | CC#CC(=O)Nc1cccc2c1cc(C)n2-c1nc2c(c(NCc3cccc(B(O)O)c3)n1)CCC2 | 1730 nM | 3150 nM | 
13 | 93.4 nM | Cc1cc2c(NC(=O)c3ccco3)cccc2n1-c1nc2c(c(NCc3cccc(B(O)O)c3)n1)CCCC2 | 2330 nM | 3120 nM | 
14 | 117 nM | CC#CC(=O)Nc1cccc2c1cc(C)n2-c1nc2c(c(NCc3cccc(B(O)O)c3)n1)COCC2 | 2900 nM | 4100 nM | 
15 | 57.3 nM | Cc1cc2c(NC(=O)c3ccco3)cccc2n1-c1nc2c(c(NCc3cccc(B(O)O)c3)n1)CCC2 | 2300 nM | 3550 nM | 
16 | 192 nM | C=CC(=O)Nc1cccc2c1cc(C)n2-c1nc2c(c(NCc3cccc(B(O)O)c3)n1)CCC2 | 2940 nM | 4750 nM | 
17 | 89.8 nM | CC#CC(=O)Nc1cccc2c1cc(C)n2-c1nc2c(c(NCc3cccc(B(O)O)c3)n1)CCCC2 | 1500 nM | 2150 nM | 
18 | 54.7 nM | Cc1cc2c(NS(C)(=O)=O)cccc2n1-c1nc2c(c(NCc3cccc(B(O)O)c3)n1)CCC2 | 860 nM | 2800 nM | 
19 | 166 nM | C/C=C/C(=O)Nc1cccc2c1cc(C)n2-c1nc2c(c(NCc3cccc(B(O)O)c3)n1)CCC2 |  | 4450 nM | Not Active
20 | 117 nM | Cc1cc2c(NS(C)(=O)=O)cccc2n1-c1nc2c(c(NCc3cccc(B(O)O)c3)n1)COCC2 | 5100 nM | > 10000 nM | 
21 | 692 nM | Cc1cc2c(NC(=O)CC#N)cccc2n1-c1nc2c(c(NCc3cccc(B(O)O)c3)n1)CCC2 |  |  | 
22 | 88.9 nM | Cc1cc2c(NS(C)(=O)=O)cccc2n1-c1nc(NCc2cccc(B(O)O)c2)c2ccccc2n1 | 3600 nM | 5600 nM | 

Reference: ChEMBL document CHEMBL4819067, “Discovery of novel pyrimidine molecules containing boronic acid as VCP/p97 Inhibitors” (Bioorg Med Chem, 2021)
